# Source: US7838732B2, “Transgenic plants expressing a cellulase” (Syngenta Participations AG, priority 1996, dated 2010)
# Legend:
# [1] = system: PR-1a/T7 polymerase x plastid T7/GUS plants (pPH110X6b x 4276P); experiment: GUS mRNA content of plants sprayed with BTH (Northern blot, ethidium bromide scan); type: in vivo, Nicotiana tabacum
# Source text: (§1) The N. tabacum ‘Xanthi’ plastid transformant line 4276P described by McBride et al. ((1994) PNAS 91: 7301-7305) was pollinated by homozygous NT-110X6b5 plants containing the PR-1a/T7 RNA polymerase. 4276P differs from pC8 only with respect to (a) the promoter used to express the aadA selectable marker (which has the 16S ribosomal RNA gene promoter rather than the psbA gene promoter used in pC8), (b) the presence of a psbA gene 3′ untranslated region between the GUS gene and the T7 terminator, and (c) the absence of a lac operator and duplicated StuI restriction site sequence in the T7 promoter. F1 plants from this cross heterozygous for the PR-1a/T7 polymerase nuclear expression cassette and homoplastidic for the T7/GUS plastid expression cassette were germinated in soil. Upon reaching a height of 20 to 40 cm the plants were sprayed with either an inert wettable powder suspension or a formulation of the inducer compound BTH with wettable powder. Control untransformed N. tabacum ‘Xanthi’, NT-110X6b-5, and 4276P plants germinated in soil at the same time were sprayed in a similar manner. Plant material (one leaf from each of three independent plants of each genotype) was harvested just prior to spraying and at 8 hours and 1, 2, 3, 7, and 28 days following spraying, and flash frozen as described above.
# (§2) Total RNA was extracted from frozen tissue of BTH and wettable powder-sprayed control and PR-1a/T7 polymerase×plastid T7/GUS plants, and Northern blot analysis on 5 μg RNA samples was carried out as described (Ward et al. (1991) The Plant Cell 3, 1085-1094) using as a probe a 500 bp radiolabelled 5′ fragment of the GUS gene. […] Example C12 Determination of GUS protein content of transgenic plants In order to determine the amount of GUS present in the tissues of transgenic plants, chemiluminescent (Amersham) Western blot analysis was performed according to the manufacturer's instructions and Harlow and Lane (1988) Antibodies: A laboratory manual, Cold Spring Harbor Laboratory, Cold Spring Harbor, using GUS antisera purchased from Molecular Probes and purified GUS protein standards (Sigma). Proteins from frozen, ground leaf material harvested as above were solubilized by extraction in 50 mM Tris pH 8.0, 1 mM EDTA, 1 mM PTT, 1 mM AEBSP, and 1 mM DTT and 5 to 25 μg protein run on each lane of 10% polyacrylamide gels. GUS protein accumulation in the plastid transformed plants is sustained over 7-28 days and beyond, and is extraordinarily high (much higher than peak GUS accumulation for nuclear PR-1a/GUS), exceeding 20% of total protein by 28 days.
# [2] = system: nuclear PR-1a/GUS transformants; experiment: GUS protein accumulation in nuclear PR-1a/GUS transformants after induction (Western blot); type: in vivo; conditions: nuclear PR1a/GUS transformants
# Protocol: as §2
# [3] = system: PR-1a/T7 polymerase x plastid T7/GUS plants (pPH110X6b x 4276P); experiment: GUS activity in leaf extracts of plants sprayed with BTH (fluorometric MUG assay); type: in vivo, Nicotiana tabacum
# Source text: as §1
# Frozen leaf tissue was ground in a mortar with a pestle in the presence of liquid nitrogen to produce a fine powder. Leaf extracts were prepared in GUS extraction buffer (50 mM sodium phosphate pH7.0, 0.1% Triton-X 100, 0.1% sarkosyl, 10 mM β-mercaptoethanol) as described by Jefferson, R. A. et al. (1986), PNAS USA 83, 8447-8451. The reactions were carried out in the wells of opaque microtiter plates by mixing 10 ul of extract with 65 ul of GUS assay buffer (50 mM sodium phosphate pH 7.0, 10 mM EDTA, 0.1% Triton X-100, 10 mM β-mercaptoethanol) containing 4-methyl umbelliferyl glucuronide […] at a final concentration of 2 mM in a total volume of 75 ul. The plate was incubated at 37° C. for 30 minutes and the reaction was stopped by the addition of 225 ul of 0.2 M sodium carbonate. The concentration of fluorescent indicator released was determined by reading the plate on a Flow Labs Fluoroskan II ELISA plate reader. Duplicate fluorescence values for each sample were averaged, and background fluorescence (reaction without MUG) was subtracted to obtain the concentration of MU for each sample. The amount of protein in each extract was determined using the bicinchoninic acid technique (BCA, Pierce Biochemicals) according to the manufacturer's recommendations except that protein extracts were pretreated with iodoacetamide (Sigma) to eliminate background signal caused by the reductant (β-mercaptoethanol) present in the extraction buffer. The specific activity was determined for each sample and was expressed in pmoles MU/mg protein/minute. For each tissue sample assayed from a particular time point following BTH application, the specific activity of the BTH-induced sample was divided by the specific activity of the pre-BTH treatment control sample, thus yielding the induction of GUS expression. (See Table I)
# [4] = system: PR-1a/T7 polymerase x plastid T7/GUS plants; experiment: GUS protein content of plants after BTH induction (Western blot); type: in vivo, Nicotiana tabacum; conditions: plastid transformed plants
# Source text: as §1, with “above. […]” for “above.”
# [5] = system: PR-1a/T7 polymerase x plastid T7/cellulase plants; experiment: E5 cellulase mRNA content of plants after BTH induction (Northern blot); type: in vivo, Nicotiana tabacum
# Source text: Homozygous NT-10× and NT-110N plants containing the PR-1a-T7 RNA Pol construct were used to pollinate homoplastidic Nt_pC8E5 and Nt_pC+E5 plastid transformant lines carrying the maternally inherited pC8E5 and pC+E5 cellulase constructs. The Nt_pC+E5×NT-110X or NT--110N, and Nt_pC8E5×NT-110X or NT110N F1 progeny (which were heterozygous for the PR-1/T7 polymerase nuclear expression cassette and homoplastidic for the T7/cellulase plastid expression cassette) were germinated on soil. Upon reaching a height of […], the plants were sprayed with the inducer compound BTH to elicit T7 Pol-regulated expression of the E5 cellulase gene that is localized to the plastids. […]
# Total RNA was extracted from frozen tissue of BTH and wettable powder-sprayed control and PR-1a/7 polymerase×plastid T7/cellulase plants, and Northern blot analysis on 5 μg RNA samples was carried out as described (Ward et al. (1991) The Plant Cell 3, 1085-1094) using as a probe a radiolabelled DNA fragment containing the E5 cellulase coding sequence. Relative E5 cellulase mRNA accumulation at each time point was assessed by quantifying the radioactivity in bands hybridizing with the radiolabelled E5 cellulase probe in order to determine time courses of fold mRNA induction. […] Prior to induction, no cellulase mRNA is detected.
smiles,measurement,setting,value
"CSC(=O)c1cccc2nnsc12 [BTH, benzo(1,2,3)thiadiazole-7-carbothioic acid S-methyl ester]",% Total RNA (GUS RNA),[1]; 0.3 days after BTH spray,<0.013%
same,% Total RNA (GUS RNA),[1]; 1.0 days after BTH spray,0.108%
same,% Total RNA (GUS RNA),[1]; 2.0 days after BTH spray,0.873%
same,% Total RNA (GUS RNA),[1]; 3.0 days after BTH spray,2.663%
same,% Total RNA (GUS RNA),[1]; 7.0 days after BTH spray,7.745%
same,% Total RNA (GUS RNA),[1]; 28.0 days after BTH spray,24.596%
same,"peak level of chemically inducible GUS RNA in the plastid, of total ethidium-stainable RNA",[1]; between 7 and 28 days after induction with BTH,14%
same,peak GUS RNA relative to peak chemically inducible GUS mRNA accumulation for nuclear PR-1a/GUS transformants,[1]; plastid vs nuclear PR-1a/GUS transformants,over 1000 fold
same,GUS protein accumulation by 28 days,[2]; 28 days,declines to the limits of detection
same,time of peak GUS protein accumulation,[2]; from induction,about 3 days
same,GUS activity (pmol MU/mg/min),[3]; 0.3 days after BTH spray,434 pmol MU/mg/min
same,GUS activity (pmol MU/mg/min),[3]; 1.0 days after BTH spray,"14,516 pmol MU/mg/min"
same,GUS activity (pmol MU/mg/min),[3]; 2.0 days after BTH spray,"230,031 pmol MU/mg/min"
same,GUS activity (pmol MU/mg/min),[3]; 3.0 days after BTH spray,"456,486 pmol MU/mg/min"
same,GUS activity (pmol MU/mg/min),[3]; 7.0 days after BTH spray,"2,424,725 pmol MU/mg/min"
same,GUS activity (pmol MU/mg/min),[3]; 28.0 days after BTH spray,"1,922,466 pmol MU/mg/min"
same,"GUS protein accumulation, of total protein",[4]; by 28 days,exceeding 20%
same,time of peak/sustained GUS protein accumulation,[4]; from induction,7 to 28 days
same,time of peak cellulase mRNA accumulation,[5]; after induction,14 days
same,E5 cellulase mRNA accumulation following induction,"[5]; plant material of example C6, none detected prior to induction",significant cellulase mRNA accumulation
